Laboratory results: PubChem BioAssay (NCI)
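Abbreviation: GI50, concentration required for 50% inhibition of growth. TGI denotes the concentration required for complete inhibition of growth.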

How the values were obtained:
Assay in all cases: inhibition of tumour cell growth, NCI panel, 384-well format
A549 NSCLC = tested on: A549 NSCLC
NCI/ADR-RES ovarian = tested on: NCI/ADR-RES ovarian
U251 glioblastoma = tested on: U251 glioblastoma
DU-145 prostate = tested on: DU-145 prostate
UO-31 renal = tested on: UO-31 renal
UACC-257 melanoma = tested on: UACC-257 melanoma
SN12C renal = tested on: SN12C renal
HS 578T breast = tested on: HS 578T breast
NCI-H322M lung = tested on: NCI-H322M lung
EKVX NSCLC = tested on: EKVX NSCLC
SNB-19 CNS = tested on: SNB-19 CNS
SK-MEL-28 melanoma = tested on: SK-MEL-28 melanoma
CAKI-1 renal = tested on: CAKI-1 renal
OVCAR-4 ovarian = tested on: OVCAR-4 ovarian
TK-10 renal = tested on: TK-10 renal
CCRF-CEM leukemia = tested on: CCRF-CEM leukemia
MOLT-4 leukemia = tested on: MOLT-4 leukemia
LOX IMVI melanoma = tested on: LOX IMVI melanoma
KM12 colon = tested on: KM12 colon
K-562 leukemia = tested on: K-562 leukemia
NCI-H226 lung = tested on: NCI-H226 lung
ACHN renal = tested on: ACHN renal
PC-3 prostate = tested on: PC-3 prostate
HOP-62 NSCLC = tested on: HOP-62 NSCLC
MCF7 breast = tested on: MCF7 breast
RXF 393 renal = tested on: RXF 393 renal
M14 melanoma = tested on: M14 melanoma
SF-295 CNS = tested on: SF-295 CNS
NCI-H460 NSCLC = tested on: NCI-H460 NSCLC
SF-268 CNS = tested on: SF-268 CNS
MDA-MB-435 melanoma = tested on: MDA-MB-435 melanoma
MDA-MB-231 breast = tested on: MDA-MB-231 breast
HL-60(TB) leukemia = tested on: HL-60(TB) leukemia
T-47D breast = tested on: T-47D breast
HCC-2998 colon = tested on: HCC-2998 colon
HCT-116 colon = tested on: HCT-116 colon
SF-539 CNS = tested on: SF-539 CNS
IGROV1 ovarian = tested on: IGROV1 ovarian
NCI-H23 lung = tested on: NCI-H23 lung
SNB-75 CNS = tested on: SNB-75 CNS
SW-620 colon = tested on: SW-620 colon
RPMI-8226 leukemia = tested on: RPMI-8226 leukemia
OVCAR-5 ovarian = tested on: OVCAR-5 ovarian
HCT-15 colon = tested on: HCT-15 colon
SK-MEL-2 melanoma = tested on: SK-MEL-2 melanoma
BT-549 breast = tested on: BT-549 breast
SK-MEL-5 melanoma = tested on: SK-MEL-5 melanoma

For `C=CC(=O)N1CCC(CNc2ncnc(N)c2-c2ccc(Oc3ccccc3)cc2)CC1`, the GI50 (A549 NSCLC) was 21 µM, the TGI (A549 NSCLC) was 55.4 µM and the GI50 (NCI/ADR-RES ovarian) was 15.9 µM. The TGI (NCI/ADR-RES ovarian) was 34.5 µM, the GI50 (U251 glioblastoma) was 18.6 µM and the TGI (U251 glioblastoma) was 40.6 µM. It also gave a GI50 (DU-145 prostate) of 19.5 µM, a TGI (DU-145 prostate) of 46.4 µM and a GI50 (UO-31 renal) of 22.3 µM. For the same compound, the TGI (UO-31 renal) was over 100 µM, the GI50 (UACC-257 melanoma) was 18.1 µM and the TGI (UACC-257 melanoma) was 34.2 µM. The GI50 (SN12C renal) was 17 µM, the TGI (SN12C renal) was 43 µM and the GI50 (HS 578T breast) was 11.4 µM. For the same compound, the TGI (HS 578T breast) was 24.5 µM, the GI50 (NCI-H322M lung) was 20.4 µM and the TGI (NCI-H322M lung) was over 69.2 µM. The GI50 (EKVX NSCLC) was 20.1 µM, the TGI (EKVX NSCLC) was 48.7 µM and the GI50 (SNB-19 CNS) was 23.4 µM. It also gave a TGI (SNB-19 CNS) of 71.7 µM, a GI50 (SK-MEL-28 melanoma) of 36.4 µM and a TGI (SK-MEL-28 melanoma) of over 86.9 µM. For the same compound, the GI50 (CAKI-1 renal) was 16.9 µM, the TGI (CAKI-1 renal) was 43.1 µM and the GI50 (OVCAR-4 ovarian) was 21.2 µM. For the same compound, the TGI (OVCAR-4 ovarian) was 69.7 µM, the GI50 (TK-10 renal) was 18.3 µM and the TGI (TK-10 renal) was 36.2 µM. For the same compound, the GI50 (CCRF-CEM leukemia) was 17.2 µM, the TGI (CCRF-CEM leukemia) was 31 µM and the GI50 (MOLT-4 leukemia) was 14.5 µM. It also gave a TGI (MOLT-4 leukemia) of 27.7 µM, a GI50 (LOX IMVI melanoma) of 17.2 µM and a TGI (LOX IMVI melanoma) of 31 µM. For the same compound, the GI50 (KM12 colon) was 23 µM, the TGI (KM12 colon) was 47.6 µM and the GI50 (K-562 leukemia) was 15.2 µM. It also gave a TGI (K-562 leukemia) of 29.5 µM, a GI50 (NCI-H226 lung) of 15.6 µM and a TGI (NCI-H226 lung) of 36 µM. The GI50 (ACHN renal) was 25.4 µM, the TGI (ACHN renal) was 66.4 µM and the GI50 (PC-3 prostate) was 18.5 µM. The TGI (PC-3 prostate) was 41.2 µM, the GI50 (HOP-62 NSCLC) was 20.7 µM and the TGI (HOP-62 NSCLC) was 48.3 µM. The GI50 (MCF7 breast) was 25.7 µM, the TGI (MCF7 breast) was 98.1 µM and the GI50 (RXF 393 renal) was 15.1 µM. The TGI (RXF 393 renal) was 36.6 µM, the GI50 (M14 melanoma) was 29.6 µM and the TGI (M14 melanoma) was 77.4 µM. The GI50 (SF-295 CNS) was 26.1 µM, the TGI (SF-295 CNS) was over 71.1 µM and the GI50 (NCI-H460 NSCLC) was 19.6 µM. The TGI (NCI-H460 NSCLC) was 41.2 µM, the GI50 (SF-268 CNS) was 17 µM and the TGI (SF-268 CNS) was 37.9 µM. It also gave a GI50 (MDA-MB-435 melanoma) of 28.7 µM, a TGI (MDA-MB-435 melanoma) of over 73.3 µM and a GI50 (MDA-MB-231 breast) of 20.4 µM. The TGI (MDA-MB-231 breast) was 52.6 µM, the GI50 (HL-60(TB) leukemia) was 11.8 µM and the TGI (HL-60(TB) leukemia) was 24 µM. It also gave a GI50 (T-47D breast) of 17.7 µM, a TGI (T-47D breast) of 46.6 µM and a GI50 (HCC-2998 colon) of 18.7 µM. It also gave a TGI (HCC-2998 colon) of 33.2 µM, a GI50 (HCT-116 colon) of 21.1 µM and a TGI (HCT-116 colon) of 48.3 µM. For the same compound, the GI50 (SF-539 CNS) was 20.9 µM, the TGI (SF-539 CNS) was over 58.6 µM and the GI50 (IGROV1 ovarian) was 14.6 µM. The TGI (IGROV1 ovarian) was 28.3 µM, the GI50 (NCI-H23 lung) was 20.3 µM and the TGI (NCI-H23 lung) was 42.2 µM. The GI50 (SNB-75 CNS) was 15 µM, the TGI (SNB-75 CNS) was 36.5 µM and the GI50 (SW-620 colon) was 18.6 µM. For the same compound, the TGI (SW-620 colon) was 34 µM, the GI50 (RPMI-8226 leukemia) was 9.92 µM and the TGI (RPMI-8226 leukemia) was 22.3 µM. The GI50 (OVCAR-5 ovarian) was 38.1 µM, the TGI (OVCAR-5 ovarian) was over 100 µM and the GI50 (HCT-15 colon) was 23.6 µM. It also gave a TGI (HCT-15 colon) of 60 µM, a GI50 (SK-MEL-2 melanoma) of 20.5 µM and a TGI (SK-MEL-2 melanoma) of 36.9 µM. The GI50 (BT-549 breast) was 14.1 µM, the TGI (BT-549 breast) was 28.6 µM and the GI50 (SK-MEL-5 melanoma) was 16.1 µM. The TGI (SK-MEL-5 melanoma) was 30.6 µM.
